We go through one compound from patent US12631620B2, “Methods of generating organoids for high throughput screening of drugs” (Yissum Research Development Company of the Hebrew …, priority 2019, dated 2026).

Several values for one entry are separate records, joined by “and”; a condition that tells them apart may be missing. Equal entries are not always repeated.

This data set relates to HepG2/C3A organoids. The experiment in a line: Real-time oxygen uptake toxicity (TC50, time to onset, lowest exposure level) in differentiated HepG2/C3A organoids. Format: cell-based, human. Conditions: for TC50: oxygen uptake. The protocol: A suspension of HepG2/C3A cells and CPOx-50-RuP beads (Colibri Photonics, Germany) were suspended in 2.5 mg/ml rat tail collagen type I (Corning, USA) at a cell density of 7×10^5 cells/μl. A volume of 1.1 μl of the gel-imbedded mixture was injected into each microwell and left to form spontaneously until their metabolic activity stabilized around day 4.
Fifty-micrometer-diameter polystyrene microbeads were loaded with ruthenium-phenanthroline-based phosphorescence dye (CPOx-50-RuP). […] Oxygen acts as a quencher, leading to a decrease in decay time and signal intensity with increasing concentration. The present inventors chose to measure decay time, rather than signal intensity, as it is not sensitive to changes in probe concentration or excitation intensity over the course of the experiment. The signal was measured using the OPAL system (Colibri Photonics, Germany) that comprises of a control module, 532 nm LED excitation source, and a photomultiplier (PMT) detector mounted on the ocular of an IX81 Olympus microscope (Olympus, Japan). A filter cube with 531/40 (Ex), 555, 607/70 (Em) was inserted in the optical light path during measurements. To accurately measure decay time, the present inventors chose phase modulation in which sinusoidal amplitude-modulated light is shifted in phase due to oxygen quenching. To overcome the superposition of in-phase background fluorescence that alters the phase of the detected signal, the present inventors used a novel 53.5 and 31.3 kHz two-frequency phase modulation that allowed to screen out the interference [Schmalzlin E., et al., 2005. Biophysical journal, 89: 1339-1345; Papkovsky, D. B. et al., 2004. Methods in enzymology, 381, 715-735; Ast, C., et al., 2012. Sensors (Basel), 12: 7015-7032; Engelhard, S., et al., 2006. Analytical and bioanalytical chemistry, 384: 1107-1112; Prill, D. et al., 2016, Archives of toxicology, 90: 1181-1191]. Measurements were carried out by averaging five consecutive 4-s exposures. Measurements were taken every 15 minutes. Under similar conditions, 28 days of measurement of organoids was done with no apparent phototoxicity, signal drift, or relevant loss of signal intensity (Schmalzlin E., et al., 2005. Biophysical journal, 89: 1339-1345). Assessment of Cellular Toxicity and Time to Onset
Organoids were exposed to different concentrations of compounds dissolved in culture medium. Cell viability was determined by oxygen uptake following 24 hours of exposure unless otherwise noted. TC50 concentrations were determined using MATLAB by sigmoidal curve fitting (Wenner, M. M. et al., 2011, J Appl Physiol (1985), 111: 1703-1709; Prentice, R. L. et al., 1976, Biometrics, 32: 761-768). Time to onset was analyzed by MATLAB based on LPF and trend assessment.
To find the asymptotic concentration for which damage occurs only at infinite exposure time, the present inventors used a previously developed model for accumulative drug exposure (El-Kareh et al., 2000. Neoplasia, 2: 325-338; Currie, G. M. 2018. J Nucl Med Technol, DOI: 10.2967/jnmt.117.199588). The model is based on the steady-state dynamics of flux accumulation, using a linear first-order approximation of the cell membrane. The flux behavior is described by
where J(C) is the concentration dependent flux, Jmin is the minimal flux that will cause an effect, t is time of exposure and |τ is a drug-cell specific constant accounting reaction dynamics (Gowrishankar et al., 2003. Proceedings of the National Academy of Sciences of the United States of America, 100: 3203-3208; Kotnik T. et al., 2000. IEEE Trans Biomed Eng, 47: 1074-1081). In the present case, t is the Time to Onset (TTO) of damage creating a bi-asymptotic behavior. This adapted model is used to describe lowest exposure level (LEL) under first order, steady state assumptions, as
Real-time oxygen measurements were performed optically using on-chip lifetime-based luminescence quenching (LBLQ). […]

Take `Cc1cn([C@H]2C=C[C@@H](CO)O2)c(=O)[nH]c1=O` [Stavudine]: the TC50 was 4300 µM (at 24 hours); 1700 µM and 1700 ± 400 µM (at 42 hours). Besides, for the setting “dose-dependent range over concentrations tested”, the “Time to onset (TTO) of response” value fell in the range of 10 to 29 h. In addition, the “lowest exposure level (LEL)” value (horizontal asymptote, onset of damage at infinite time, ± standard error of curve fit) is 4 ± 1 µM.
